From BindingDB's records for doi:10.1021/jm070654j (University of Zurich, 2008) come the findings set out here.

Structures are written as SMILES.

This assay addresses Cyclin-dependent kinase 1 (Homo sapiens, UniProt P06493). Kind of assay: Inhibition of CDK1.

Chain of Cyclin-dependent kinase 1 (P06493 whole entry): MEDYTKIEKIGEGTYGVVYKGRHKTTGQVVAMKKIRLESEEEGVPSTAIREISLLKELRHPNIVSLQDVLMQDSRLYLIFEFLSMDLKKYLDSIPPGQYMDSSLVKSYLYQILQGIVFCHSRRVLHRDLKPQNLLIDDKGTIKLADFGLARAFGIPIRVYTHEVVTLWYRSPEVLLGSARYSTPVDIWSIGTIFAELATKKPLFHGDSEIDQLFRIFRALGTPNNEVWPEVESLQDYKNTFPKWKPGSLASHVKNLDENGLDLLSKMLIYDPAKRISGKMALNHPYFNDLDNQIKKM

For `Cc1cc(Cl)cc2c1NC(=O)C2C=Nc1ccc(S(N)(=O)=O)cc1` (stereo not drawn), the IC50 (as a rule, the midpoint of a concentration-inhibition curve) was above 1000 nM.
The figure for `Cc1cccc2c1NC(=O)C2C=Nc1ccc(S(N)(=O)=O)cc1` (stereo not drawn) is above 1000 nM; for `Cc1cc(C)c2c(c1)C(C=Nc1ccc(S(N)(=O)=O)cc1)C(=O)N2` (stereo not drawn) it is above 1000 nM.
